# Measured values published in ChEMBL document CHEMBL1221170, “Sensing with TRP channels” (Nat Chem Biol, 2005).
# Target: Transient receptor potential cation channel subfamily V member 4 (Homo sapiens) (UniProt Q9HBA0)
# Assay: Agonist activity at TRPV4
# Format: functional
# Transient receptor potential cation channel subfamily V member 4 (Homo sapiens), sequence (Q9HBA0 whole entry): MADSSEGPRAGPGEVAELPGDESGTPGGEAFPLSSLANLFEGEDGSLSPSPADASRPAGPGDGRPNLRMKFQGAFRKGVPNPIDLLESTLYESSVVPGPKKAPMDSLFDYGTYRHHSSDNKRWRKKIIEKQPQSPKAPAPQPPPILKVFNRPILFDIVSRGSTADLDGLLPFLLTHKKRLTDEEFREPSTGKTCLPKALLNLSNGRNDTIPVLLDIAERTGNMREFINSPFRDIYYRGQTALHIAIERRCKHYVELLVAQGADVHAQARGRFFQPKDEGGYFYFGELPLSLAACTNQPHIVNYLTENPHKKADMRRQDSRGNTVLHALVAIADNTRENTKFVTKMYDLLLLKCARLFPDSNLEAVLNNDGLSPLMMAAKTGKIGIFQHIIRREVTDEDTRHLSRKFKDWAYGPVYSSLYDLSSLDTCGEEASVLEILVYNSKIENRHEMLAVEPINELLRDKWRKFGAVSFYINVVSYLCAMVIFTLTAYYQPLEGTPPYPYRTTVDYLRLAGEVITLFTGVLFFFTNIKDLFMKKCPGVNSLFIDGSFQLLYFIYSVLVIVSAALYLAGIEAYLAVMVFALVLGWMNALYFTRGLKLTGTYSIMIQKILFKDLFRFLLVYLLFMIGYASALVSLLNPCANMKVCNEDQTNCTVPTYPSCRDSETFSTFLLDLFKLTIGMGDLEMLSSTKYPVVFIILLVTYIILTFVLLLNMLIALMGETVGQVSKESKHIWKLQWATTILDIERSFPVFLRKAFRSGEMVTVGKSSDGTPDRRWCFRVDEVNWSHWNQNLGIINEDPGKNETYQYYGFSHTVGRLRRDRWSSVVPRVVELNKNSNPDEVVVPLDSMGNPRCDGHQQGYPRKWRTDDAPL
row,SMILES,Activity
1,CCCCC/C=C/C/C=C/C/C=C/CC1OC1CCCC(=O)O (centres undefined),0.01 µM
2,CCCCCCCCCC(=O)O[C@H]1[C@H](C)[C@]2(O)[C@H](C=C(CO)C[C@@]3(O)C(=O)C(C)=C[C@H]23)[C@H]2C(C)(C)[C@@]12OC(=O)CCCCCCCCC,0.099 µM

# Target: Transient receptor potential cation channel subfamily M member 8 (Homo sapiens) (UniProt Q7Z2W7)
# Assay: Agonist activity at TRPM8
# Format: functional
# Transient receptor potential cation channel subfamily M member 8 (Homo sapiens), sequence (Q7Z2W7 whole entry, looked up): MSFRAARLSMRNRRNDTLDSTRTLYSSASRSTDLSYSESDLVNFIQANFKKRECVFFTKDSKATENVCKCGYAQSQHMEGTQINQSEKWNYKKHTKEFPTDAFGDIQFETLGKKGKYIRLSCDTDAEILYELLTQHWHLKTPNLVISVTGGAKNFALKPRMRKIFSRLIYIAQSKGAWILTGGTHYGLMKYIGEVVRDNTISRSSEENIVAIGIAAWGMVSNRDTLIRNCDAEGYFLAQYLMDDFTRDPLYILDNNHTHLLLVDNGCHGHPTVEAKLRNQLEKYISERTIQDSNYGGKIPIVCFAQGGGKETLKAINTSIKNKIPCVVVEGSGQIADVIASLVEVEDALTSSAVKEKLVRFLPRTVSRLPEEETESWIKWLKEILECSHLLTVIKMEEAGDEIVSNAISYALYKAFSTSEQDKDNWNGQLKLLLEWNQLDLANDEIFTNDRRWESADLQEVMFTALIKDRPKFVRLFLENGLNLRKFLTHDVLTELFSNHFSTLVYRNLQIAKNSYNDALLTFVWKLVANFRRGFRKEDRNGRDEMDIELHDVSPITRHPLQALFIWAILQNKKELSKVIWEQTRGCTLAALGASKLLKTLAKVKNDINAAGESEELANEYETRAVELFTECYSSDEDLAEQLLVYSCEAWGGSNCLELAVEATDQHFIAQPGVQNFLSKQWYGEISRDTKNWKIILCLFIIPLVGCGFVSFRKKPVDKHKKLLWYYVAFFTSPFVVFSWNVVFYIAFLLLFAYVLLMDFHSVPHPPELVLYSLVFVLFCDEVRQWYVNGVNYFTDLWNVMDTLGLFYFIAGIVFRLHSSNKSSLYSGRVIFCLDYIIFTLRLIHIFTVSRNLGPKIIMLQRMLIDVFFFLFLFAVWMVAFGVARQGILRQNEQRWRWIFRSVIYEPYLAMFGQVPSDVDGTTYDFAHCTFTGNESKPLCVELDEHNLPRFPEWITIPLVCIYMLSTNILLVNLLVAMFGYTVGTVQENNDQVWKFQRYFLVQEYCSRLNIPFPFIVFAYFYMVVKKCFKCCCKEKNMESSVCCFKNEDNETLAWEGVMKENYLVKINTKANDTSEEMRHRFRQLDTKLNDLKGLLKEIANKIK
row,SMILES,Activity
1,CC1CCC(C(C)C)C(O)C1 (centres undefined),10 µM
2,CC12CCC(CC1)C(C)(C)O2,100 µM
3,O=C1NC(c2cccc([N+](=O)[O-])c2)=CCN1c1ccccc1O,0.099 µM

# Target: Transient receptor potential cation channel subfamily A member 1 (Homo sapiens) (UniProt O75762)
# Assay: Agonist activity at TRPA1
# Format: functional
# Transient receptor potential cation channel subfamily A member 1 (Homo sapiens), sequence (O75762 whole entry): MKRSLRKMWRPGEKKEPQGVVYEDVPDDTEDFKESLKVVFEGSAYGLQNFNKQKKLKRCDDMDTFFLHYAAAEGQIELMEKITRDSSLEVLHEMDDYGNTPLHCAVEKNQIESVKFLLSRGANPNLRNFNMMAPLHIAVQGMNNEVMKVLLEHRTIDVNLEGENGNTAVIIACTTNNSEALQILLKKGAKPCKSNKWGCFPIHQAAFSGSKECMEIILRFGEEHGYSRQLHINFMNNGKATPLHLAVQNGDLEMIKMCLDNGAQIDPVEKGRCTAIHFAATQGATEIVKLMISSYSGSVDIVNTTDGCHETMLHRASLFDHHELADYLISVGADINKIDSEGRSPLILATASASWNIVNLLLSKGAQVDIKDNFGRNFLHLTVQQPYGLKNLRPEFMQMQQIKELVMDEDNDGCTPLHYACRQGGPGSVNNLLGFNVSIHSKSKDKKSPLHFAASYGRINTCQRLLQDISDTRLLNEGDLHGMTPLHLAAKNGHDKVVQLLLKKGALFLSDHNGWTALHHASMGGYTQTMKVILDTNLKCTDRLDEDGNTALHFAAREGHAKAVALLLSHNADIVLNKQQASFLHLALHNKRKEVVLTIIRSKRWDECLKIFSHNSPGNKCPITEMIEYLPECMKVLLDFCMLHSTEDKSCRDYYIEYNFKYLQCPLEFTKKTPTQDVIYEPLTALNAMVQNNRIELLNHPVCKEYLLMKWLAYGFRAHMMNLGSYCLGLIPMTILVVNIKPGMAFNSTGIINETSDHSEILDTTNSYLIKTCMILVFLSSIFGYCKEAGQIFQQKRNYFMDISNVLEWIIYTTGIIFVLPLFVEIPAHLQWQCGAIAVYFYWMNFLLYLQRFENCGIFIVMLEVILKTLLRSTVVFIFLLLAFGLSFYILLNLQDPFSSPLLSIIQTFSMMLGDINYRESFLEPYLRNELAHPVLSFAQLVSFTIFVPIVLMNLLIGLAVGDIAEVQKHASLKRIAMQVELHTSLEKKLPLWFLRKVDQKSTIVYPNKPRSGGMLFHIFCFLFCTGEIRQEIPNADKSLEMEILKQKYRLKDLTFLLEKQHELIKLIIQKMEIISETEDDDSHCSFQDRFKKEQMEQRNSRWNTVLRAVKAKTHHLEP
row,SMILES,Activity
1,CCCCCc1cc(O)c2c(c1)OC(C)(C)[C@@H]1CCC(C)=C[C@@H]21,10 µM
2,C=CCS[S+]([O-])CC=C (centres undefined),10 µM
3,O=C/C=C/c1ccccc1,10 µM
4,O=C1NC(c2cccc([N+](=O)[O-])c2)=CCN1c1ccccc1O,0.099 µM
